Where a name gives a salt, the structure may show the parent alone.
Tested on: E. coli MG1655
Assay: High-throughput screening of FDA-approved drug library for antibiotic adjuvants (growth inhibition, OD600)
Type: cell-based, Escherichia coli
Settings: library drug alone, LB medium, 96-well, 8 h static culture at 37°C, relative to PMBN (positive) and DMSO (negative) controls, %, table head prints no unit
Description: To screen for antibiotic adjuvants against GNB, […] library drugs or polymyxin B nonapeptide (PMBN, positive control) or dimethyl sulfoxide (DMSO, negative control). After 8 h of static culture at 37°C, the optical density at 600 nm (OD600) was measured using a microplate reader. Percentage inhibition was calculated as (ODN – ODX)/(ODN – ODP) × 100%, where ODX is the OD600 value for a test treated with drug X, and ODP and ODN are the OD600 values for the positive and negative control, respectively.

Row | SMILES | Growth inhibition, Compound [%]
1 | Cc1c(N)nc([C@H](CC(N)=O)NC[C@H](N)C(N)=O)nc1C(=O)N[C@H](C(=O)N[C@H](C)[C@@H](O)[C@H](C)C(=O)N[C@H](C(=O)NCCc1nc(-c2nc(C(=O)NCCC[S+](C)C)cs2)cs1)[C@@H](C)O)[C@@H](O[C@@H]1O[C@@H](CO)[C@@H](O)[C@H](O)[C@@H]1O[C@H]1O[C@H](CO)[C@@H](O)[C@H](OC(N)=O)[C@@H]1O)c1cnc[nH]1.O=S(=O)([O-])O [Bleomycin Sulfate] | 110
2 | CC(=O)Nc1ncc([N+](=O)[O-])s1 [Nithiamide] | 87
3 | CN[C@@H]1[C@H](O)[C@H](NC)[C@H]2O[C@@]3(O)C(=O)C[C@@H](C)O[C@H]3O[C@@H]2[C@H]1O.Cl.Cl [Spectinomycin dihydrochloride] | 92
4 | C[C@@H](O)[C@H]1C(=O)N2C(C(=O)[O-])=C(SC3Cn4cnc[n+]4C3)[C@H](C)[C@H]12 (stereo partly drawn) [Biapenem] | 113
5 | CCn1cc(C(=O)O)c(=O)c2cc(F)c(N3CCNCC3)nc21.CCn1cc(C(=O)O)c(=O)c2cc(F)c(N3CCNCC3)nc21.O.O.O [Enoxacin Sesquihydrate] | 110
6 | Cc1cn([C@H]2C[C@H](N=[N+]=[N-])[C@@H](CO)O2)c(=O)[nH]c1=O [Zidovudine] | 95
7 | C[C@@H]1O[C@@H]1P(=O)(O)O [Fosfomycin Disodium] | 102
8 | CN1CCN(c2c(F)cc3c(=O)c(C(=O)O)cn(CCF)c3c2F)CC1 [Fleroxacin] | 109
9 | CNC1CCCN(c2c(F)cc3c(=O)c(C(=O)O)cn(C4CC4)c3c2OC)C1 (stereo not drawn) [Balofloxacin] | 108
10 | C=CC1=C(C(=O)O)N2C(=O)[C@@H](NC(=O)/C(=N\O)c3csc(N)n3)[C@H]2SC1 [Cefdinir] | 100
11 | CC1(C)S[C@@H]2[C@H](NC(=O)[C@H](NC(=O)N3CCN(S(C)(=O)=O)C3=O)c3ccccc3)C(=O)N2[C@H]1C(=O)O [Mezlocillin Sodium] | 89
12 | NCc1ccccc1CC(=O)N[C@@H]1C(=O)N2C(C(=O)O)=C(CSc3nnnn3CC(=O)O)CS[C@H]12 [Ceforanide] | 94
13 | Cc1nnc(SCC2=C(C(=O)O)N3C(=O)[C@@H](NC(=O)Cn4cnnn4)[C@H]3SC2)s1 [Cefazolin] | 102
14 | CO/N=C(\C(=O)N[C@@H]1C(=O)N2C(C(=O)O)=C(C[N+]3(C)CCCC3)CS[C@H]12)c1csc(N)n1 [Cefepime Dihydrochloride Monohydrate] | 83
15 | CO/N=C(\C(=O)N[C@@H]1C(=O)N2C(C(=O)O)=C(CSC(=O)c3ccco3)CS[C@H]12)c1csc(N)n1 [Sodium ceftiofur] | 109
16 | Cc1ccc(S(=O)(=O)O)cc1.NC1CCN(c2nc3c(cc2F)c(=O)c(C(=O)O)cn3-c2ccc(F)cc2F)C1.O (stereo not drawn) [Tosufloxacin p-Toluenesulfonate Hydrate] | 99
17 | NC(=O)[C@@H]1CC[C@@H]2CN1C(=O)N2OS(=O)(=O)O [Avibactam sodium] | 46
18 | Cc1oc(=O)oc1CN1CCN(c2cc3c(cc2F)c(=O)c(C(=O)O)c2n3C(C)S2)CC1 (stereo not drawn) [Prulifloxacin] | 100
19 | C/C(=C\C(=O)OCCCCCCCCC(=O)O)C[C@@H]1OC[C@H](C[C@@H]2O[C@H]2[C@@H](C)[C@H](C)O)[C@@H](O)[C@H]1O [Mupirocin] | 83
20 | O=C(O)c1cn(-c2ccc(F)cc2)c2cc(N3CCNCC3)c(F)cc2c1=O [Sarafloxacin] | 109
21 | CC1(C)S[C@@H]2[C@H](NC(=O)[C@H](N)c3ccccc3)C(=O)N2[C@H]1C(=O)OCOC(=O)[C@@H]1N2C(=O)C[C@H]2S(=O)(=O)C1(C)C [Sultamicillin Tosylate] | 93
22 | Cl.NC1CCN(c2nc3c(cc2F)c(=O)c(C(=O)O)cn3-c2ccc(F)cc2F)C1 (stereo not drawn) [Tosufloxacin hydrochloride] | 103
23 | NC(=O)N/N=C/c1ccc([N+](=O)[O-])o1 [Furacilin] | 76
24 | O=[N+]([O-])C(Br)(CO)CO [Bronopol] | 100
25 | CCN1CCN(C(=O)N[C@@H](C(=O)N[C@@H]2C(=O)N3[C@@H]2SC(C)(C)[C@@H]3C(=O)O)c2ccccc2)C(=O)C1=O [Piperacillin sodium salt] | 88
26 | CCN1CCN(c2cc3c(cc2F)c(=O)c(C(=O)O)cn3C2CC2)CC1 [Enrofloxacin] | 95
27 | COc1c(N2C[C@@H]3CCCN[C@@H]3C2)c(F)cc2c(=O)c(C(=O)O)cn(C3CC3)c12 [Moxifloxacin] | 101

Row | SMILES | Growth inhibition, Compound [%]
28 | CC[C@H]1OC(=O)[C@H](C)[C@@H](O[C@H]2C[C@@](C)(OC)[C@@H](O)[C@H](C)O2)[C@H](C)[C@@H](O[C@@H]2O[C@H](C)C[C@H](N(C)C)[C@H]2O)[C@](C)(O)C[C@@H](C)CN[C@H](C)[C@@H](O)[C@]1(C)O [Azathramycin] | 114
29 | c1cnc2c(c1)ccc1cccnc12 [o-Phenanthroline] | 79
30 | CO/N=C(\C(=O)N[C@@H]1C(=O)N2C(C(=O)O)=C(CSc3nc(=O)c(=O)[nH]n3C)CS[C@H]12)c1csc(N)n1 [Ceftriaxone sodium] | 114
31 | CO[C@H]1/C=C/O[C@@]2(C)Oc3c(C)c(O)c4c(O)c(c5c(nc6cc(C)ccn65)c4c3C2=O)NC(=O)/C(C)=C\C=C\[C@H](C)[C@H](O)[C@@H](C)[C@@H](O)[C@@H](C)[C@H](OC(C)=O)[C@@H]1C [Rifaximin] | 108
32 | CCn1cc(C(=O)O)c(=O)c2cc(F)c(N3CCNC(C)C3)c(F)c21 (stereo not drawn) [Lomefloxacin hydrochloride] | 107
33 | NC[C@H]1O[C@H](O[C@H]2[C@H](O[C@@H]3O[C@H](CO)[C@@H](O)[C@H]3O)[C@@H](O)[C@H](N)C[C@@H]2N)[C@H](N)[C@@H](O)[C@@H]1O.O=S(=O)(O)O [Ribostamycin sulfate] | 110
34 | CN(C)[C@@H]1C(O)=C(C(N)=O)C(=O)[C@@]2(O)C(O)=C3C(=O)c4c(O)ccc(Cl)c4[C@@](C)(O)[C@H]3C[C@@H]12 [Chlortetracycline hydrochloride] | 111
35 | CN[C@@H]1[C@@H](O)[C@@H](O[C@@H]2[C@@H](O)[C@H](O[C@H]3OC(CN)=CC[C@H]3N)[C@@H](N)C[C@H]2N)OC[C@]1(C)O [Sisomicin Sulfate] | 105
36 | CCn1cc(C(=O)O)c(=O)c2ccc(C)nc21 [Nalidixic acid] | 74
37 | O=C(N[C@H](CO)[C@H](O)c1ccc([N+](=O)[O-])cc1)C(Cl)Cl [Chloramphenicol] | 109
38 | C=CC1=C(C(=O)O)N2C(=O)[C@@H](NC(=O)/C(=N\OCC(=O)O)c3csc(N)n3)[C@H]2SC1 [Cefixime] | 109
39 | O=C(Nc1ccc([N+](=O)[O-])cc1Cl)c1cc(Cl)ccc1O [Niclosamide] | 45
40 | CN(C)[C@@H]1C(O)=C(C(N)=O)C(=O)[C@@]2(O)C(O)=C3C(=O)c4c(O)cccc4[C@@](C)(O)[C@H]3[C@H](O)[C@@H]12 [Oxytetracycline] | 66
41 | CO[C@H]1/C=C/O[C@@]2(C)Oc3c(C)c(O)c4c(O)c(c(/C=N/N5CCN(C6CCCC6)CC5)c(O)c4c3C2=O)NC(=O)/C(C)=C\C=C\[C@H](C)[C@H](O)[C@@H](C)[C@@H](O)[C@@H](C)[C@H](OC(C)=O)[C@@H]1C [Rifapentine] | 99
42 | CN1CCN(c2c(F)cc3c(=O)c(C(=O)O)cn4c3c2OCN4C)CC1 [Marbofloxacin] | 108
43 | CS(=O)(=O)O.C[C@H]1COc2c(C3(N)CC3)c(F)cc3c(=O)c(C(=O)O)cn1c23 [Pazufloxacin Mesylate] | 109
44 | C[C@@H](O)[C@H]1C(=O)N2C(C(=O)O)=C(SC3CN(C4=NCCS4)C3)[C@H](C)[C@H]12 [Tebipenem] | 109
45 | [H]/N=C(\N/C(=N/[H])NCCCCCCNC(=N)NC(=N)Nc1ccc(Cl)cc1)Nc1ccc(Cl)cc1 [Chlorhexidine Acetate] | 103
46 | Cc1cn([C@H]2C[C@H](F)[C@@H](CO)O2)c(=O)[nH]c1=O [3'-Deoxy-3'-fluorothymidine] | 70
47 | NC[C@H]1O[C@H](O[C@H]2[C@H](O)[C@@H](O[C@H]3O[C@H](CO)[C@@H](O)[C@H](N)[C@H]3O)[C@H](N)C[C@@H]2N)[C@H](N)[C@@H](O)[C@@H]1O [Bekanamycin] | 106
48 | CC1(C)S[C@@H]2[C@H](NC(=O)C(C(=O)O)c3ccccc3)C(=O)N2[C@H]1C(=O)O (stereo partly drawn) [Carbenicillin disodium] | 89
49 | CO/N=C(\C(=O)N[C@@H]1C(=O)N2C(C(=O)OCOC(=O)C(C)(C)C)=C(/C=C\c3scnc3C)CS[C@H]12)c1csc(N)n1 [Cefditoren pivoxil] | 73
50 | CC1(C)S[C@@H]2[C@H](NC(=O)Cc3ccccc3)C(=O)N2[C@H]1C(=O)O [Benzylpenicillin potassium] | 55
51 | CN(C)[C@@H]1C(O)=C(C(N)=O)C(=O)[C@@]2(O)C(O)=C3C(=O)c4c(O)ccc(Cl)c4[C@@H](O)[C@H]3C[C@@H]12 [Demeclocycline hydrochloride] | 99
52 | CO[C@@]1(NC(=O)C2SC(=C(C(N)=O)C(=O)O)S2)C(=O)N2C(C(=O)O)=C(CSc3nnnn3C)CS[C@@H]21 (stereo partly drawn) [Cefotetan] | 97
53 | Oc1c(Br)cc(Br)c2cccnc12 [Broxyquinoline] | 103
54 | CC[C@H]1OC(=O)[C@H](C)[C@@H](O[C@H]2C[C@@](C)(OC)[C@@H](O)[C@H](C)O2)[C@H](C)[C@@H](O[C@@H]2O[C@H](C)C[C@H](N(C)C)[C@H]2O)[C@](C)(OC)C[C@@H](C)C(=O)[C@H](C)[C@@H](O)[C@]1(C)O [Clarithromycin] | 50

From publication PMC11358092, “Caspofungin enhances the potency of rifampin against Gram-negative bacteria” (Frontiers in Microbiology, 2024)
